Test results: patent US20110039721A1, “METHOD FOR PREDICTION ABOUT CARCINOGENICITY OF SUBSTANCE IN RODENT” (Chemicals Evaluation and Research Institute, priority 2007, published 2011)

Columns and labels:
[1] = tested on: mRNA expressed from the genes (A) to (D) in rat liver; assay: Behavior of genes (mRNA expression level, oligo-DNA microarray) in rat liver after 28-day oral administration; format: in vivo; details: for Behavior of gene caused by administration of chemical substance, Gene No. 4846 / Behavior of gene caused by administration of chemical substance, Gene No. 2026 / Behavior of gene caused by administration of chemical substance, Gene No. 4218 / Behavior of gene caused by administration of chemical substance, Gene No. 6182 / Behavior of gene caused by administration of chemical substance, Gene No. 5600: gene group (A); for Behavior of gene caused by administration of chemical substance, Gene No. 4846: Unigene No. Rn.144554; for Behavior of gene caused by administration of chemical substance, Gene No. 2026 / Behavior of gene caused by administration of chemical substance, Gene No. 4218: Unigene No. Rn.167075; for Behavior of gene caused by administration of chemical substance, Gene No. 6182: Unigene No. Rn.5834; for Behavior of gene caused by administration of chemical substance, Gene No. 5600: Unigene No. Rn.9836; for Behavior of gene caused by administration of chemical substance, Gene No. 1494 / Behavior of gene caused by administration of chemical substance, Gene No. 2045 / Behavior of gene caused by administration of chemical substance, Gene No. 2203: gene group (B); for Behavior of gene caused by administration of chemical substance, Gene No. 1494: Unigene No. Rn.1430; for Behavior of gene caused by administration of chemical substance, Gene No. 2045: Unigene No. Rn.19329; for Behavior of gene caused by administration of chemical substance, Gene No. 2203: Unigene No. Rn.21240; for Behavior of gene caused by administration of chemical substance, Gene No. 533 / Behavior of gene caused by administration of chemical substance, Gene No. 725 / Behavior of gene caused by administration of chemical substance, Gene No. 1163 / Behavior of gene caused by administration of chemical substance, Gene No. 4973 / Behavior of gene caused by administration of chemical substance, Gene No. 4095 / Behavior of gene caused by administration of chemical substance, Gene No. 1334 / Behavior of gene caused by administration of chemical substance, Gene No. 6620 / Behavior of gene caused by administration of chemical substance, Gene No. 6303 / Behavior of gene caused by administration of chemical substance, Gene No. 5878 / Behavior of gene caused by administration of chemical substance, Gene No. 1131 / Behavior of gene caused by administration of chemical substance, Gene No. 1562 / Behavior of gene caused by administration of chemical substance, Gene No. 1741 / Behavior of gene caused by administration of chemical substance, Gene No. 893 / Behavior of gene caused by administration of chemical substance, Gene No. 6026 / Behavior of gene caused by administration of chemical substance, Gene No. 154 / Behavior of gene caused by administration of chemical substance, Gene No. 1993 / Behavior of gene caused by administration of chemical substance, Gene No. 813 / Behavior of gene caused by administration of chemical substance, Gene No. 2494 / Behavior of gene caused by administration of chemical substance, Gene No. 2546 / Behavior of gene caused by administration of chemical substance, Gene No. 3776 / Behavior of gene caused by administration of chemical substance, Gene No. 3929 / Behavior of gene caused by administration of chemical substance, Gene No. 1119 / Behavior of gene caused by administration of chemical substance, Gene No. 6742 / Behavior of gene caused by administration of chemical substance, Gene No. 5634: gene group (C); for Behavior of gene caused by administration of chemical substance, Gene No. 533: Unigene No. Rn.106184; for Behavior of gene caused by administration of chemical substance, Gene No. 725: Unigene No. Rn.108075; for Behavior of gene caused by administration of chemical substance, Gene No. 1163: Unigene No. Rn.11766; for Behavior of gene caused by administration of chemical substance, Gene No. 4973: Unigene No. Rn.118529; for Behavior of gene caused by administration of chemical substance, Gene No. 4095: Unigene No. Rn.119024; for Behavior of gene caused by administration of chemical substance, Gene No. 1334 / Behavior of gene caused by administration of chemical substance, Gene No. 6620: Unigene No. Rn.120914; for Behavior of gene caused by administration of chemical substance, Gene No. 6303: Unigene No. Rn.123063; for Behavior of gene caused by administration of chemical substance, Gene No. 5878: Unigene No. Rn.143213; for Behavior of gene caused by administration of chemical substance, Gene No. 1131: Unigene No. Rn.144946; for Behavior of gene caused by administration of chemical substance, Gene No. 1562: Unigene No. Rn.14744; for Behavior of gene caused by administration of chemical substance, Gene No. 1741: Unigene No. Rn.1647; for Behavior of gene caused by administration of chemical substance, Gene No. 893: Unigene No. Rn.164817; for Behavior of gene caused by administration of chemical substance, Gene No. 6026: Unigene No. Rn.167685; for Behavior of gene caused by administration of chemical substance, Gene No. 154: Unigene No. Rn.185941; for Behavior of gene caused by administration of chemical substance, Gene No. 1993: Unigene No. Rn.18728; for Behavior of gene caused by administration of chemical substance, Gene No. 813: Unigene No. Rn.201760; for Behavior of gene caused by administration of chemical substance, Gene No. 2494: Unigene No. Rn.23969; for Behavior of gene caused by administration of chemical substance, Gene No. 2546: Unigene No. Rn.24561; for Behavior of gene caused by administration of chemical substance, Gene No. 3776: Unigene No. Rn.43232; for Behavior of gene caused by administration of chemical substance, Gene No. 3929: Unigene No. Rn.4620; for Behavior of gene caused by administration of chemical substance, Gene No. 1119: Unigene No. Rn.9757; for Behavior of gene caused by administration of chemical substance, Gene No. 6742: Unigene No. Rn.9779; for Behavior of gene caused by administration of chemical substance, Gene No. 5634: Unigene No. Rn.9862; for Behavior of gene caused by administration of chemical substance, Gene No. 5726: gene group (D), Unigene No. Rn.9939
Procedure, shortened: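 Male F344 SPF rats, 5 weeks old, four per group, received carcinogens, non-carcinogens or solvent vehicle by oral gavage once daily for 28 days. Liver total RNA was then extracted. Changes of ≥1.5-fold or ≤1/1.5 versus vehicle control, in a consistent direction across carcinogens, counted as significant.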

[2] = tested on: liver; details: classification of the substance (Cr+/Cr−); cited from earlier work
[3] = tested on: rodent; details: classification of the substance (C+/C−); cited from earlier work
[4] = classification of the substance (M+/M−); cited from earlier work

Row | Compound | Behavior of gene caused by administration of chemical substance, Gene No. 4846 [1] | Behavior of gene caused by administration of chemical substance, Gene No. 2026 [1] | Behavior of gene caused by administration of chemical substance, Gene No. 4218 [1] | Behavior of gene caused by administration of chemical substance, Gene No. 6182 [1] | Behavior of gene caused by administration of chemical substance, Gene No. 5600 [1] | Behavior of gene caused by administration of chemical substance, Gene No. 1494 [1] | Behavior of gene caused by administration of chemical substance, Gene No. 2045 [1] | Behavior of gene caused by administration of chemical substance, Gene No. 2203 [1] | Behavior of gene caused by administration of chemical substance, Gene No. 533 [1] | Behavior of gene caused by administration of chemical substance, Gene No. 725 [1] | Behavior of gene caused by administration of chemical substance, Gene No. 1163 [1] | Behavior of gene caused by administration of chemical substance, Gene No. 4973 [1] | Behavior of gene caused by administration of chemical substance, Gene No. 4095 [1] | Behavior of gene caused by administration of chemical substance, Gene No. 1334 [1] | Behavior of gene caused by administration of chemical substance, Gene No. 6620 [1] | Behavior of gene caused by administration of chemical substance, Gene No. 6303 [1] | Behavior of gene caused by administration of chemical substance, Gene No. 5878 [1] | Behavior of gene caused by administration of chemical substance, Gene No. 1131 [1] | Behavior of gene caused by administration of chemical substance, Gene No. 1562 [1] | Behavior of gene caused by administration of chemical substance, Gene No. 1741 [1] | other results
1 | ClC(Cl)(Cl)Cl [TS003, Carbon tetrachloride] | + | + | + | + | + | + | + | + | + | − | + | + | − | − | − | − | − | − | − | + | Behavior of gene caused by administration of chemical substance, Gene No. 893 [1]: −; Behavior of gene caused by administration of chemical substance, Gene No. 6026 [1]: −; Behavior of gene caused by administration of chemical substance, Gene No. 154 [1]: +; Behavior of gene caused by administration of chemical substance, Gene No. 1993 [1]: −; Behavior of gene caused by administration of chemical substance, Gene No. 813 [1]: −; Behavior of gene caused by administration of chemical substance, Gene No. 2494 [1]: −; Behavior of gene caused by administration of chemical substance, Gene No. 2546 [1]: −; Behavior of gene caused by administration of chemical substance, Gene No. 3776 [1]: −; Behavior of gene caused by administration of chemical substance, Gene No. 3929 [1]: −; Behavior of gene caused by administration of chemical substance, Gene No. 1119 [1]: −; Behavior of gene caused by administration of chemical substance, Gene No. 6742 [1]: −; Behavior of gene caused by administration of chemical substance, Gene No. 5634 [1]: −; Behavior of gene caused by administration of chemical substance, Gene No. 5726 [1]: −; Liver carcinogenicity [2]: Cr+; Carcinogenicity [3]: C+; Mutagenicity by Ames test [4]: M−
2 | OC[C@@H](O)[C@@H](O)[C@H](O)[C@H](O)CO [TS009, D-Mannitol] | − | − | − | − | − | − | − | − | − | − | − | − | − | − | − | − | − | − | − | − | Behavior of gene caused by administration of chemical substance, Gene No. 893 [1]: −; Behavior of gene caused by administration of chemical substance, Gene No. 6026 [1]: −; Behavior of gene caused by administration of chemical substance, Gene No. 154 [1]: −; Behavior of gene caused by administration of chemical substance, Gene No. 1993 [1]: −; Behavior of gene caused by administration of chemical substance, Gene No. 813 [1]: −; Behavior of gene caused by administration of chemical substance, Gene No. 2494 [1]: −; Behavior of gene caused by administration of chemical substance, Gene No. 2546 [1]: −; Behavior of gene caused by administration of chemical substance, Gene No. 3776 [1]: −; Behavior of gene caused by administration of chemical substance, Gene No. 3929 [1]: −; Behavior of gene caused by administration of chemical substance, Gene No. 1119 [1]: −; Behavior of gene caused by administration of chemical substance, Gene No. 6742 [1]: −; Behavior of gene caused by administration of chemical substance, Gene No. 5634 [1]: −; Behavior of gene caused by administration of chemical substance, Gene No. 5726 [1]: −; Liver carcinogenicity [2]: Cr−; Carcinogenicity [3]: C−; Mutagenicity by Ames test [4]: M−
3 | Clc1ccc(C(c2ccc(Cl)cc2)C(Cl)(Cl)Cl)cc1 [TS016, Dichloro-diphenyl-trichloroethane] | − | − | − | + | − | + | + | + | + | − | − | − | + | − | − | − | − | − | − | + | Behavior of gene caused by administration of chemical substance, Gene No. 893 [1]: −; Behavior of gene caused by administration of chemical substance, Gene No. 6026 [1]: −; Behavior of gene caused by administration of chemical substance, Gene No. 154 [1]: −; Behavior of gene caused by administration of chemical substance, Gene No. 1993 [1]: −; Behavior of gene caused by administration of chemical substance, Gene No. 813 [1]: −; Behavior of gene caused by administration of chemical substance, Gene No. 2494 [1]: +; Behavior of gene caused by administration of chemical substance, Gene No. 2546 [1]: −; Behavior of gene caused by administration of chemical substance, Gene No. 3776 [1]: −; Behavior of gene caused by administration of chemical substance, Gene No. 3929 [1]: −; Behavior of gene caused by administration of chemical substance, Gene No. 1119 [1]: −; Behavior of gene caused by administration of chemical substance, Gene No. 6742 [1]: +; Behavior of gene caused by administration of chemical substance, Gene No. 5634 [1]: +; Behavior of gene caused by administration of chemical substance, Gene No. 5726 [1]: −; Liver carcinogenicity [2]: Cr+; Carcinogenicity [3]: C+; Mutagenicity by Ames test [4]: M−
